In patent US20210318274A1, “METHODS FOR EVALUATING LIVER FUNCTION” (HepQuant, LLC, priority 2020, published 2021):
Read-outs that look alike come from different tables or passages of the source. One block for each compound: values may come before it.

How the values were obtained:
[1] = cited from earlier work
[2] = Antipyrine clearance by Child-Pugh and DSI; assay type: in vivo, human
From the text: Antipyrine is an analgesic and antipyretic. […] Antipyrine may be used in testing the effects of other drugs or diseases on drug-metabolizing enzymes in the liver, such as various cytochrome p450 (CYP) enzymes, for example, as shown in Table 22.

[3] = individuals with chronic liver disease and cirrhosis; cited from earlier work
[4] = parameters: species or system human; conditions: in vivo
Description: In some embodiments, the distinguishable compound is galactose. Galactose elimination capacity (GEC) has been used as an index of residual hepatic function. Galactose in the GEC test typically is administered intravenously at a dose of […] and venous samples taken every 5 min between 20 and 60 minutes. The clearance of galactose is decreased in individuals with chronic liver disease and cirrhosis. The fact that this carbohydrate has a high extraction ratio, however, makes the metabolism of galactose dependent on liver blood flow and hepatic functional mass. […] The carbohydrate galactose is metabolized almost exclusively in the liver, and the elimination rate at blood concentrations high enough to yield near-saturated enzymatic conversion, the GEC is used as a quantitative measure of the metabolic capacity of the liver. One study has shown that among patients with a newly-diagnosed cirrhosis and a decreased GEC, the GEC was a strong predictor of mortality. (Jepsen et al, 2009, The galactose elimination capacity and mortality in 781 Danish patients with newly-diagnosed liver cirrhosis: a cohort study. BMC Gastroenterol. 2009, 9:50).

[5] = Lidocaine MEGX 15 min concentration by Child-Pugh and DSI; assay type: in vivo, human; conditions: by DSI score group (5-15, 15-25, 25-35, 35-45)
Description: Lidocaine elimination and MEGX (monoethylglycinexylidide) formation after oral lidocaine administration may be used as a quantitative assessment of liver function. […] MEGX 15 minute concentrations.

[6] = in vivo
From the text: The present inventors analyzed the relationship of DSI to pharmacokinetic parameters of various classes of drugs.
Methionine is an essential amino acid in humans, and is the substrate for other amino acids such as cysteine or taurine. Methionine also may be used to prevent liver toxicity in acetaminophen (Tylenol) poisoning, to increase acidity of urine, treat liver disorders, or improve wound healing. […] The methionine breath test may involve orally administered ^13C-methionine to detect hepatic mitochondrial dysfunction by evaluating level of ^13CO2 exhalation. ^13C methionine breath test may be used to monitor hepatic mitochondrial oxidation and drug-related mitochondrial toxicity in vivo, for example, to detect antiretroviral drug-related mitochondrial toxicity.

[7] = Obeticholic acid plasma exposure versus DSI, clinical trial in NASH; assay type: in vivo, human; conditions: NASH patients, fibrosis F1 to compensated F4
From the text: Obeticholic acid (OCA) is a Farnesoid X Receptor (FXR) agonist, bile acid analog of chenodeoxycholic acid that is FDA approved for treatment of primary biliary cholangitis, and is being studied for use in treating other hepatic diseases and conditions. […] The circles are observed data; red lines are linear regression fit. OCA=Obeticholic acid. […] DSI correlates with OCA PK both at baseline (day 1) and at day 85.

SMILES: Cc1cc(=O)n(-c2ccccc2)n1C [Antipyrine]
First pass hepatic extraction (qualitative) ([1]; in vivo): low first pass hepatic metabolism | Average antipyrine clearance ([2]; Child-Pugh class B versus CP A5 and CP A6 patients): decreased average antipyrine clearance | Average antipyrine clearance ([2]; by DSI score group (5-15, 15-25, 25-35, 35-45)): reduced average antipyrine clearance | Average antipyrine clearance ([2]; by DSI score group (5-15, 15-25, 25-35, 35-45), listed as antipyrine): lowest PK average values

SMILES: O=C[C@H](O)[C@@H](O)[C@@H](O)[C@H](O)CO [Galactose]
Clearance of galactose [3]: decreased | First pass hepatic extraction (qualitative) ([1]; substrate characterisation): relatively high first pass hepatic extraction | Average galactose elimination capacity [4]: decreased average galactose elimination capacity

SMILES: CCN(CC)CC(=O)Nc1c(C)cccc1C [Lidocaine]
First pass hepatic extraction (qualitative) ([1]; substrate characterisation): relatively high first pass hepatic extraction | Average MEGX 15 min concentration following lidocaine [5]: lowest PK average values

Average ^13CO2 exhalation score (methionine breath test) ([6]; human): reduced average ^13CO2 exhalation score | Average ^13CO2 exhalation score (methionine breath test) [6]: lowest PK average values
SMILES: CSCC[C@H](N)C(=O)O [Methionine]
First pass hepatic extraction (qualitative) ([1]; substrate characterisation): relatively low first pass hepatic extraction | Average methionine breath test value [6]: decreased average methionine breath test values

Plasma exposure in relation to DSI [7]: related to DSI measurement
SMILES: CC[C@H]1[C@@H](O)[C@@H]2[C@H](CC[C@]3(C)[C@@H]([C@H](C)CCC(=O)O)CC[C@@H]23)[C@@]2(C)CC[C@@H](O)C[C@@H]12 [Obeticholic acid, 6alpha-ethyl-chenodeoxycholic acid]
